Experimental data taken from the supplement of paper PMC10307832.

Tests used:
Experiment in all cases: relative viability (nuclei count vs DMSO), 5 days (fraction); higher = more cells survive
AGI-6780 = compound: O=C(Nc1cccc(C(F)(F)F)c1)Nc1cc(S(=O)(=O)NC2CC2)ccc1-c1ccsc1 [AGI-6780]
In short: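 On vehicle-anchored 1536-well plates, lung cancer cell lines held overnight at 37 °C were pinned with five library-drug doses (not always all listed) spaced by √10. With no medium change over 5 days, they were then fixed, permeabilised and Hoechst-stained in one step and imaged at 4×. MetaXpress counted nuclei, and viability is the median across plates of treated-well over vehicle-well nuclei. Acceptance needed control CV below 25% and at least one doubling.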

AGI-6780 + Olaparib = compound: O=C(Nc1cccc(C(F)(F)F)c1)Nc1cc(S(=O)(=O)NC2CC2)ccc1-c1ccsc1 [AGI-6780] + O=C(c1cc(Cc2n[nH]c(=O)c3ccccc23)ccc1F)N1CCN(C(=O)C2CC2)CC1 [Olaparib] (partner 8 µM)
In short: (§1)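 Dosing by pin tool came one day after lung cancer cell lines were seeded in 1536-well plates, using either one drug or a fixed anchor-drug dose plus five library-drug doses (not always all listed) in √10 steps. After 5 days, nuclei were counted on 4× images. Relative viability is treated-well nuclei count divided by vehicle-well nuclei count, and values are medians of duplicate plates.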

AGI-6780 + Phenformin = compound: O=C(Nc1cccc(C(F)(F)F)c1)Nc1cc(S(=O)(=O)NC2CC2)ccc1-c1ccsc1 [AGI-6780] + N=C(N)NC(=N)NCCc1ccccc1 [Phenformin] (partner 250 µM)
In short: as §1

AGI-6780 + Trametinib = compound: O=C(Nc1cccc(C(F)(F)F)c1)Nc1cc(S(=O)(=O)NC2CC2)ccc1-c1ccsc1 [AGI-6780] + CC(=O)Nc1cccc(-n2c(=O)n(C3CC3)c(=O)c3c(Nc4ccc(I)cc4F)n(C)c(=O)c(C)c32)c1 [Trametinib] (partner 0.02 µM)
In short: as §1

| Cell Line | relative viability (AGI-6780; 0.08 µM) | relative viability (AGI-6780; 0.253 µM) | relative viability (AGI-6780; 0.8 µM) | relative viability (AGI-6780; 2.53 µM) | relative viability (AGI-6780; 8 µM) | relative viability (AGI-6780 + Olaparib; first compound 0.08 µM) | relative viability (AGI-6780 + Olaparib; first compound 0.253 µM) | relative viability (AGI-6780 + Olaparib; first compound 0.8 µM) | relative viability (AGI-6780 + Olaparib; first compound 2.53 µM) | relative viability (AGI-6780 + Olaparib; first compound 8 µM) | relative viability (AGI-6780 + Phenformin; first compound 0.08 µM) | relative viability (AGI-6780 + Phenformin; first compound 0.253 µM) | relative viability (AGI-6780 + Phenformin; first compound 0.8 µM) | relative viability (AGI-6780 + Phenformin; first compound 2.53 µM) | relative viability (AGI-6780 + Phenformin; first compound 8 µM) | relative viability (AGI-6780 + Trametinib; first compound 0.08 µM) | relative viability (AGI-6780 + Trametinib; first compound 0.253 µM) | relative viability (AGI-6780 + Trametinib; first compound 0.8 µM) | relative viability (AGI-6780 + Trametinib; first compound 2.53 µM) | relative viability (AGI-6780 + Trametinib; first compound 8 µM) |
| --- | --- | --- | --- | --- | --- | --- | --- | --- | --- | --- | --- | --- | --- | --- | --- | --- | --- | --- | --- | --- |
| LOU-NH91 | 0.953 | 0.992 | 1.04 | 0.923 | 0.961 | 0.942 | 0.887 | 0.94 | 0.912 | 0.89 | 0.707 | 0.659 | 0.774 | 0.677 | 0.698 | 0.826 | 0.777 | 0.765 | 0.751 | 0.824 |
| HCC-15 | 1.09 | 1.06 | 1.1 | 0.808 | 1.05 | 0.724 | 0.808 | 0.703 | 0.657 | 0.76 | 0.551 | 0.525 | 0.505 | 0.428 | 0.47 | 0.369 | 0.426 | 0.349 | 0.309 | 0.369 |
| HCC-827 | 1.06 | 1.06 | 1.01 | 1.07 | 1.02 | 0.73 | 0.659 | 0.661 | 0.53 | 0.651 | 0.423 | 0.39 | 0.413 | 0.395 | 0.376 | 0.457 | 0.518 | 0.518 | 0.435 | 0.476 |
| NCI-H1703 | 0.949 | 0.84 | 1.02 | 0.823 | 0.807 | 0.728 | 0.37 | 0.457 | 0.373 | 0.25 |  |  |  |  |  |  |  |  |  |  |
| NCI-H2405 | 0.995 | 1 | 0.842 | 0.923 | 1.01 |  | 0.85 | 0.776 | 0.838 | 0.758 | 0.431 | 0.381 | 0.279 | 0.339 | 0.382 |  | 0.649 | 0.57 | 0.492 | 0.583 |
| PC-3 [JPC-3] | 0.982 | 1.04 | 1.08 | 1.08 | 0.962 |  | 1.09 | 1.11 | 1.18 | 0.962 | 0.51 | 0.483 | 0.479 | 0.502 | 0.496 |  | 0.582 | 0.701 | 0.744 | 0.626 |
| NCI-H2085 | 1.02 | 1 | 1.05 | 1.07 | 0.993 | 0.823 | 0.739 | 0.738 | 0.849 | 0.761 | 0.728 | 0.836 | 0.736 | 0.716 | 0.707 | 0.651 | 0.581 | 0.526 | 0.666 | 0.735 |
| 201T | 0.996 | 1 | 0.997 | 0.989 | 0.995 | 0.869 | 0.837 | 0.84 | 0.871 | 0.775 | 0.495 | 0.41 | 0.486 | 0.427 | 0.492 | 0.705 | 0.731 | 0.715 | 0.72 | 0.773 |
| NCI-H1975 | 0.94 | 1.08 | 0.918 | 0.873 | 0.921 | 0.78 | 0.731 | 0.804 | 0.722 | 0.806 | 0.437 | 0.427 | 0.41 |  | 0.395 | 0.369 | 0.348 | 0.29 | 0.207 | 0.322 |
| NCI-H2023 | 0.969 | 0.978 | 1.03 | 0.882 | 1.03 | 0.5 | 0.444 | 0.437 | 0.374 | 0.492 | 0.395 | 0.39 | 0.413 | 0.403 | 0.389 | 0.691 | 0.527 | 0.497 | 0.5 | 0.526 |
| BEN | 0.834 | 0.959 | 1.04 |  | 0.957 | 1.02 | 1.02 | 1.22 |  | 0.961 | 0.25 | 0.281 | 0.289 | 0.288 | 0.28 | 0.897 | 0.999 | 1.14 |  | 0.993 |
| RERF-LC-KJ | 1.05 | 1.06 | 0.977 | 0.798 | 0.951 | 0.928 | 0.892 | 0.943 | 0.906 | 0.878 | 0.421 | 0.455 | 0.439 | 0.367 | 0.411 | 0.859 | 0.862 | 0.828 | 0.674 | 0.774 |
| SK-MES-1 | 1.04 | 1.03 | 0.99 | 0.958 | 0.99 | 0.738 | 0.667 | 0.628 | 0.643 | 0.592 | 0.689 | 0.647 | 0.623 | 0.665 | 0.683 | 0.549 | 0.577 | 0.509 | 0.532 | 0.493 |
| PC-14 | 1.02 | 1.01 | 1.05 | 1.02 | 1.04 | 0.378 | 0.282 | 0.234 | 0.318 | 0.276 | 0.464 | 0.665 | 0.576 | 0.581 | 0.695 | 0.802 | 0.764 | 1.02 | 0.731 | 0.752 |
| NCI-H1437 | 0.943 | 1 | 1.04 | 1 | 0.997 | 0.677 | 0.638 | 0.639 | 0.63 | 0.572 | 0.337 | 0.382 | 0.298 | 0.327 | 0.343 | 0.537 | 0.548 | 0.512 | 0.406 | 0.522 |
| NCI-H1993 | 1.01 | 1.07 | 1.19 | 0.677 | 0.971 | 0.831 | 1.11 | 1.13 |  | 1.09 | 0.419 | 0.51 | 0.495 | 0.499 | 0.54 | 0.639 | 0.562 | 0.535 |  | 0.604 |
| LK-2 | 0.945 | 1.02 | 1.08 |  | 1.16 | 0.643 | 0.778 | 0.945 |  | 0.755 | 0.598 | 0.556 | 0.648 |  | 0.495 | 0.864 | 0.69 | 0.813 | 0.541 | 0.868 |
